The source of these data is patent publication US12662469B2 (SIRONAX LTD, priority 2018, dated 2026).

Where two headings read alike, the source gives them in different places.

Broadly, the EC50 is the concentration that produces a half-maximal response.

This assay has as its system Cell Necrosis. The assay is described as follows: Cell necrosis assay / cell viability assay (necrosis inhibitor activity). As to conditions: for EC50: necrosis inhibitor activity, read-out: EC50. It counts as cell-based.
The mark [1] stands for this setting: EC data for 14-191 extrapolated.

Consider `O=C1Cc2ccc(OC3CN(C(=O)N4N=CC[C@H]4c4cc(F)cc(F)c4)C3)cc2N1` [Compound 209, (S)-6-((1-(5-(3,5-difluorophenyl)-4,5-dihydro-1H-pyrazole-1-carbonyl)azetidin-3-yl)oxy)indolin-2-one], for which the EC50 (compounds outside 14-191) is 1 to 1000 nM. On to `COc1cccc(C=C2CN(C(=O)N3N=CCC3c3ccccc3)C2)c1` (stereo not shown) [Compound 43, (3-(3-methoxybenzylidene)azetidin-1-yl)(5-phenyl-4,5-dihydro-1H-pyrazol-1-yl)methanone], for which the EC50 under setting [1] is 1 to 1000 nM. For the compound `N#Cc1ccc(O[C@@H]2CCN(C(=O)N3N=CC[C@H]3c3cc(F)cc(F)c3)C2)cc1` [Compound 343, 4-(((R)-1-((S)-5-(3,5-difluorophenyl)-4,5-dihydro-1H-pyrazole-1-carbonyl)pyrrolidin-3-yl)oxy)benzonitrile], the EC50 (compounds outside 14-191) was in the range of 1 to 1000 nM. Consider `O=C1NCc2c1csc2OC1CN(C(=O)N2N=CCC2c2cc(F)cc(F)c2)C1` (stereo not shown) [Compound 168], for which the EC50 under setting [1] was 1 to 1000 nM. As for `O=C(Nc1nc(N2CCN(C(=O)N3N=CC[C@H]3c3cc(F)cc(F)c3)CC2)ncc1F)C1CC1` [Compound 226, (S)—N-(2-(4-(5-(3,5-difluorophenyl)-4,5-dihydro-1H-pyrazole-1-carbonyl)piperazin-1-yl)-5-fluoropyrimidin-4-yl)cyclopropanecarboxamide], the EC50 (compounds outside 14-191) was 1 to 1000 nM. For the compound `N#Cc1cc(F)cc([C@@H]2CC=NN2C(=O)N2CC(Oc3ccc4c(c3)NC(=O)CO4)C2)c1` [Compound 198, (S)-3-fluoro-5-(1-(3-((3-oxo-3,4-dihydro-2H-benzo[b][1,4]oxazin-6-yl)oxy)azetidine-1-carbonyl)-4,5-dihydro-1H-pyrazol-5-yl)benzonitrile], the EC50 (compounds outside 14-191) was 1 to 1000 nM.

In the case of `N#Cc1ccnc(OC2CN(C(=O)N3N=CC[C@H]3c3cc(F)cc(F)c3)C2)n1` [Compound 264, (S)-2-((1-(5-(3,5-difluorophenyl)-4,5-dihydro-1H-pyrazole-1-carbonyl)azetidin-3-yd)oxy)pyrimidine-4-carbonitrile], the EC50 (compounds outside 14-191) is 1 to 1000 nM. In the case of `COc1cccc(CC2CN(C(=O)N3N=CCC3c3ccccc3)C2)c1` (stereo not shown) [Compound 39, (3-(3-methoxybenzyl)azetidin-1-yl)(5-phenyl-4,5-dihydro-1H-pyrazol-1-yl) methanone], under setting [1], the EC50 is 1 to 1000 nM. Regarding `O=C(N1CC(Cc2ccc(F)cc2)C1)N1OCC[C@H]1c1ccccc1` [Compound 79, (S)-(3-(4-fluorobenzyl)azetidin-1-yl)(3-phenylisoxazolidin-2-yl)methanone], the EC50 under setting [1] was 1 to 1000 nM. With `O=C1COc2cc(F)c(OC3CN(C(=O)N4N=CC[C@H]4c4ccccc4)C3)cc2N1` [Compound 192, (S)-7-fluoro-6-((1-(5-phenyl-4,5-dihydro-1H-pyrazole-1-carbonyl)azetidin-3-yl)oxy)-2H-benzo[b][1,4]oxazin-3(4H)-one], the “activity based on the cell activity assay” value is on record as “potent activity”. Moreover, the EC50 (compounds outside 14-191) is 1 to 1000 nM. `O=C(N1CC[C@@H](Oc2ccnc3ccnn23)C1)N1N=CC[C@H]1c1cc(F)cc(F)c1` [Compound 242, ((S)-5-(3,5-difluorophenyl)-4,5-dihydro-1H-pyrazol-1-yl)((R)-3-(pyrazolo[1,5-a]pyrimidin-7-yloxy)pyrrolidin-1-yl)methanone]: the EC50 (compounds outside 14-191) was in the range of 1 to 1000 nM. Turning to `O=C(N1CC[C@@H](Oc2cccc(F)c2)C1)N1N=CCC1c1ccccc1` (stereo partly drawn) [Compound 32, ((R)-3-(3-fluorophenoxy)pyrrolidin-1-yl)(5-phenyl-4,5-dihydro-1H-pyrazol-1-yl)methanone], the EC50 under setting [1] is 1 to 1000 nM. With `O=C(N1CC(Cc2ccc(Cl)cc2)C1)N1N=CCC1c1ccccc1` (stereo not shown) [Compound 49, (3-(4-chlorobenzyl)azetidin-1-yl)(5-phenyl-4,5-dihydro-1H-pyrazol-1-yl)methanone], under setting [1], the EC50 is 1 to 1000 nM.

As for `O=C(N1CCN(c2ncc3cc[nH]c3n2)CC1)N1N=CC[C@H]1c1cc(F)cc(F)c1` [Compound 279, (S)-(4-(7H-pyrrolo[2,3-d]pyrimidin-2-yl)piperazin-1-yl)(5-(3,5-difluorophenyl)-4,5-dihydro-1H-pyrazol-1-yl)methanone], the 50% effective concentration (EC50) (compounds outside 14-191) is 1 to 1000 nM. Consider `O=C(N1CC(=Cc2cc(NCCN3CCOCC3)ccc2F)C1)N1N=CC[C@H]1c1cc(F)cc(F)c1` [Compound 371, (S)-(5-(3,5-difluorophenyl)-4,5-dihydro-1H-pyrazol-1-yl)(3-(2-fluoro-5-((2-morpholinoethyl)amino)benzylidene)azetidin-1-yl)methanone], for which the EC50 (compounds outside 14-191) lay in the range of 1 to 1000 nM. For `CC(=C1CN(C(=O)N2N=CCC2c2ccccc2)C1)c1ccccc1` (stereo not shown) [Compound 123, (5-phenyl-4,5-dihydro-1H-pyrazol-1-yl)(3-(1-phenylethylidene)azetidin-1-yl)methanone], the EC50 under setting [1] was 1 to 1000 nM. For `CC1Oc2cc(F)c(OC3CN(C(=O)N4N=CC[C@H]4c4ccccc4)C3)cc2NC1=O` (stereo partly drawn) [Compound 352, 7-fluoro-2-methyl-6-((1-((S)-5-phenyl-4,5-dihydro-1H-pyrazole-1-carbonyl)azetidin-3-yl)oxy)-2H-benzo[b][1,4]oxazin-3(4H)-one], the EC50 (compounds outside 14-191) lay within 1 to 1000 nM. With `O=C(N1CC(Oc2cccnc2)C1)N1N=CCC1c1ccccc1` (stereo not shown) [Compound 74, (5-phenyl-4,5-dihydro-1H-pyrazol-1-yl)(3-(pyridin-3-yloxy)azetidin-1-yl)methanone], the EC50 under setting [1] was 1 to 1000 nM. On to `N#Cc1cc(OC2CN(C(=O)N3N=CC[C@H]3c3cc(F)cc(F)c3)C2)ccc1F` [Compound 236, (S)-5-((1-(5-(3,5-difluorophenyl)-4,5-dihydro-1H-pyrazole-1-carbonyl)azetidin-3-yl)oxy)-2-fluorobenzonitrile], for which the EC50 (compounds outside 14-191) fell in the range of 1 to 1000 nM. Turning to `CNC(=O)c1ccc(OC2CN(C(=O)N3N=CC[C@H]3c3cc(F)cc(F)c3)C2)cc1` [Compound 218, (S)-4-((1-(5-(3,5-difluorophenyl)-4,5-dihydro-1H-pyrazole-1-carbonyl)azetidin-3-yl)oxy)-N-methylbenzamide], the EC50 (compounds outside 14-191) is 1 to 1000 nM.

`Nc1nccc(O[C@@H]2CCN(C(=O)N3N=CC[C@H]3c3cc(F)cc(F)c3)C2)n1` [Compound 367, ((R)-3-((2-aminopyrimidin-4-yl)oxy)pyrrolidin-1-yl)((S)-5-(3,5-difluorophenyl)-4,5-dihydro-1H-pyrazol-1-yl)methanone]: the EC50 (compounds outside 14-191) is 1 to 1000 nM. As for `NC(=O)c1cc(O[C@@H]2CCN(C(=O)N3N=CC[C@H]3c3cc(F)cc(F)c3)C2)ncn1` [Compound 361], the EC50 (compounds outside 14-191) lay in the range of 1 to 1000 nM. Consider `C[C@H]1CN(c2ncc(Cl)cn2)CCN1C(=O)N1N=CCC1c1ccccc1` (stereo partly drawn) [Compound 113A, ((S)-4-(5-chloropyrimidin-2-yl)-2-methylpiperazin-1-yl)(5-phenyl-4,5-dihydro-1H-pyrazol-1-yl)methanone], for which, under setting [1], the EC50 is 1 to 1000 nM. Take `O=C(N1CC(Cc2ccc(F)cc2F)C1)N1N=CCC1c1ccccc1` (stereo not shown) [Compound 50, (3-(2,4-difluorobenzyl)azetidin-1-yl)(5-phenyl-4,5-dihydro-1H-pyrazol-1-yl)methanone]: the EC50 under setting [1] was 1 to 1000 nM.

Turning to `NCC#Cc1ccnc(N2CCN(C(=O)N3N=CCC3c3cc(F)cc(F)c3)CC2)n1` (stereo not shown) [Compound 382, (4-(4-(3-aminoprop-1-yn-1-yl)pyrimidin-2-yl)piperazin-1-yl)(5-(3,5-difluorophenyl)-4,5-dihydro-1H-pyrazol-1-yl)methanone frifluoroacetate], the EC50 (compounds outside 14-191) was 1 to 1000 nM. Same read-out and setting: the result for `O=C1COc2cc(F)c(OC3CN(C(=O)N4N=CC[C@H]4c4cc(F)cc(F)c4)C3)cc2N1` [Compound 193, (S)-6-((1-(5-(3,5-difluorophenyl)-4,5-dihydro-1H-pyrazole-1-carbonyl)azetidin-3-yl)oxy)-7-fluoro-2H-benzo[b][1,4]oxazin-3(4H)-one] reads 1 to 1000 nM; that for `O=C(CC1CCCC1)Nc1nc(N2CCN(C(=O)N3N=CC[C@H]3c3cc(F)cc(F)c3)CC2)ncc1F` [Compound 290], 1 to 1000 nM. With `O=C(N1CC(C(F)c2ccc(F)cc2F)C1)N1N=CCC1c1cc(F)cc(F)c1` (stereo not shown) [Compound 134, (5-(3,5-difluorophenyl)-4,5-dihydro-1H-pyrazol-1-yl)(3-((2,4-difluorophenyl)fluoromethyl)azetidin-1-yl)methanone], under setting [1], the EC50 was 1 to 1000 nM.

As for `O=C(N1CC(Cc2ccccc2F)C1)N1N=CCC1c1ccccc1` (stereo not shown) [Compound 40, (3-(2-fluorobenzyl)azetidin-1-yl)(5-phenyl-4,5-dihydro-1H-pyrazol-1-yl)methanone], the concentration for a half-maximal effect (EC50) under setting [1] was 1 to 1000 nM. For `C[C@@H]1CN(c2ncc(F)cn2)C[C@@H](C)N1C(=O)N1N=CCC1c1ccccc1` (stereo partly drawn) [Compound 122, ((2R,6R)-4-(5-fluoropyrimidin-2-yl)-2,6-dimethylpiperazin-1-yl)(5-phenyl-4,5-dihydro-1H-pyrazol-1-yl)methanone], the EC50 under setting [1] is 1000 to 10000 nM.

`CC(=O)N(C)c1cccc(OC2CN(C(=O)N3N=CCC3c3cc(F)cc(F)c3)C2)c1` (stereo not shown) [Compound 230, N-(3-((1-(5-(3,5-difluorophenyl)-4,5-dihydro-1H-pyrazole-1-carbonyl)azetidin-3-yl)oxy)phenyl)-N-methylacetamide]: for the setting “compounds outside 14-191”, the EC50 fell in the range of 1 to 1000 nM. In the case of `NC(=O)c1ccc(F)cc1C=C1CN(C(=O)N2N=CC[C@H]2c2cc(F)cc(F)c2)C1` [Compound 320, (S)-2-((1-(5-(3,5-difluorophenyl)-4,5-dihydro-1H-pyrazole-1-carbonyl)azetidin-3-ylidene)methyl)-4-fluorobenzamide], the EC50 (compounds outside 14-191) lay within 1 to 1000 nM. Consider `CNC(=O)c1nc(OC2CN(C(=O)N3N=CCC3c3cc(F)cc(F)c3)C2)sc1F` (stereo not shown) [Compound 170], for which the EC50 under setting [1] is 1 to 1000 nM.

As for `O=C1COc2cccc(O[C@@H]3CCN(C(=O)N4N=CC[C@H]4c4cc(F)cc(F)c4)C3)c2N1` [Compound 243, 5-(((R)-1-((S)-5-(3,5-difluorophenyl)-4,5-dihydro-1H-pyrazole-1-carbonyl)pyrrolidin-3-yl)oxy)-2H-benzo[b][1,4]oxazin-3(4H)-one], under “compounds outside 14-191”, the EC50 was 1 to 1000 nM. For `O=C(N1CC(Oc2ccc3cn[nH]c3c2)C1)N1N=CC[C@H]1c1cc(F)cc(F)c1` [Compound 207], the EC50 (compounds outside 14-191) lay within 1 to 1000 nM. With `O=C(N1CC(Oc2ccccc2)C1)N1N=CCC1c1ccccc1` (stereo not shown) [Compound 59], the EC50 under setting [1] is 1 to 1000 nM.
